Reference: patent publication EP0377521B1, “High yield sodium hydrosulfite generation” (MORTON INTERNATIONAL, INC., priority 1989, dated 1990)

Assay: NaBH₄ hydrolysis half-life vs. pH
Type: physicochemical
Settings: for HALF-LIFE: hydrolysis
Protocol: The pH flow profile becomes significant when related to the hydrolysis rate of the NaBH₄. Referring to the Table set forth below, the half-life of NaBH₄ is 3000 times longer at a pH of 6.0 compared to a pH of 2.5. Therefore, if the BOROL solution is added to a process stream having a pH of 2.5, the extent of the hydrolysis of the NaBH₄ is greater than if the BOROL solution and NaOH are added first to said process stream having a pH of 6.2 and the pH of said process stream is increased to 13.0, where the rate of hydrolysis of NaBH₄ is very slow (42.6 days). TABLE
TEMPERATURE = 25°C (77°F) LOG₁₀ (t½ ) = pH - (0.034 T - 1.92) [formula] t = MINUTES T = °K

- HALF-LIFE (pH 2.5, 25°C (77°F)): 2e-06 min
- HALF-LIFE (pH 4.0, 25°C (77°F)): 6.17e-05 min
- HALF-LIFE (pH 5.0, 25°C (77°F)): 0.000617 min
- HALF-LIFE (pH 5.5, 25°C (77°F)): 0.002 min
- HALF-LIFE (pH 6.0, 25°C (77°F)): 0.00617 min
- HALF-LIFE (pH 6.5, 25°C (77°F)): 0.02 min
- HALF-LIFE (pH 7.0, 25°C (77°F)): 0.0617 min
- HALF-LIFE (pH 8.0, 25°C (77°F)): 0.613 min
- HALF-LIFE (pH 9.0, 25°C (77°F)): 6.1 min
- HALF-LIFE (pH 10.0, 25°C (77°F)): 61 min
- HALF-LIFE (pH 12.0, 25°C (77°F)): 6190 min
- HALF-LIFE (pH 13.0, 25°C (77°F)): 61300 min
- half-life at a pH of 6.0 compared to a pH of 2.5 (ratio of hydrolysis half-lives, pH 6.0 vs pH 2.5): 3000 times longer
SMILES: [BH4-].[Na+] [NaBH₄, sodium borohydride]
